Results as given in patent US11931389B2, “Tablet of sporoderm-removed ganoderma lucidum spore and preparation method thereof” (Zhejiang Shouxiangu Pharmaceutical Company, Ltd., priority 2017, dated 2024).
Where a name gives a salt, the structure may show the parent alone.

Tests used:
Format in all cases: in vivo
[1] = test system: human lymphatic cancer (Ramos) transplanted tumor; test: Zebrafish human lymphatic cancer (Ramos) transplanted tumor model; conditions: Danio rerio, 48 h, 2 days, read-out: Inhibition Effect
From the text: Human lymphatic cancer (Ramos) cells were labeled with a red fluorescent dye (CM-Dil), and transplanted into zebrafish yolk sacs by microinjection, with about 200 cells being transplanted per zebrafish, so as to establish a zebrafish human lymphatic cancer transplanted tumor model.
(§1) Human lymphatic cancer (Ramos) cells were labeled with CM-Dil, and transplanted into 2 dpf wild type AB strain zebrafish yolk sacs by microinjection, with about 200 cells being transplanted per zebrafish, so as to establish a zebrafish human lymphatic cancer transplanted model; and the zebrafishes injected with the human lymphatic cancer cells were fed at 35° C. until 3 dpf.
Zebrafishes with better consistence in transplanted tumor cells were picked out under a microscope, randomly assigned to a 6-well plate, and were given in a water-dissolving administration manner respectively with the samples at concentrations respectively of 1, 3 and 9 μg/mL and the positive control drug vincristine at a concentration of 5 μM; and meanwhile a model control group was set, where there were 30 zebrafishes per well (concentration group), and the volume of each well was 5 mL. […] The inhibitory effect of the sample on the zebrafish lymphatic cancer (Ramos) transplanted tumor was evaluated with the fluorescence intensities, and the tumor inhibition effect was calculated using the following equation. […]

[2] = test system: human gastric cancer (SGC-7901) transplanted tumor; test: Zebrafish human gastric cancer (SGC-7901) transplanted tumor model; conditions: SGC-7901, 50 μM, 2 days
From the text: Human gastric cancer (SGC-7901) cells were labeled with a red fluorescent dye (CM-Dil), and transplanted into zebrafish yolk sacs by microinjection, with about 200 cells being transplanted per zebrafish, so as to establish the zebrafish human gastric cancer transplanted tumor model.
Human gastric cancer (SGC-7901) cells were labeled with CM-Dil, and transplanted into 2 dpf wild type AB strain zebrafish yolk sacs by microinjection, with about 200 cells per zebrafish, so as to establish a zebrafish human gastric cancer (SGC-7901) transplanted model; and the zebrafishes injected with the SGC-7901 cells were fed at 35° C. until 3 dpf.
Zebrafishes with better consistence in transplanted tumor cells were picked out under a microscope, randomly assigned to a 6-well plate, and were given in a water-dissolving administration manner respectively with the samples at concentrations respectively of 28, 83 and 250 μg/mL and the positive control drug cis-platinum at a concentration of 50 μM; and meanwhile a model control group was set, where there were 30 zebrafishes per well, and the volume of each well was 5 mL. […] The inhibitory effects of samples on the zebrafish gastric cancer (SGC-7901) transplanted tumor were respectively evaluated with the fluorescence intensities, and the tumor inhibition effect was calculated using the following equation. […]

[3] = test system: human lung adenocarcinoma (A549) transplanted tumor; test: Zebrafish human lung adenocarcinoma (A549) transplanted tumor model; conditions: A549, 50 μM, 2 days
From the text: Human lung adenocarcinoma (A549) cells were labeled with a red fluorescent dye (CM-Dil), and transplanted into zebrafish yolk sacs by microinjection, with about 200 cells being transplanted per zebrafish, so as to establish a zebrafish human lung adenocarcinoma transplanted tumor model.
as §1, with “Human lung adenocarcinoma (A549)” for “Human lymphatic cancer (Ramos)”, “human lung adenocarcinoma (A549)” for “human lymphatic cancer”, “the A549” for “the human lymphatic cancer”
Zebrafishes with better consistence in transplanted tumor cells were picked out under a microscope, randomly assigned to a 6-well plate, and were given in a water-dissolving administration manner respectively with the samples at concentrations respectively of 1, 3 and 9 μg/mL and the positive control drug cis-platinum at a concentration of 50 μM; and meanwhile a model control group was set, where there were 30 zebrafishes per well (concentration group), and the volume of each well was 5 mL. […] The inhibitory effect of the sample No. 3 on the zebrafish lung adenocarcinoma (A549) transplanted tumor was evaluated with the fluorescence intensities, and the tumor inhibition effect was calculated using the following equation. […]

| SMILES | inhibition at 5 µM [1] | Inhibition Effect [2] | Inhibition Effect [3] |
| --- | --- | --- | --- |
| CC[C@]1(O)C[C@H]2CN(CCc3c([nH]c4ccccc34)[C@@](C(=O)OC)(c3cc4c(cc3OC)N(C=O)[C@H]3[C@@](O)(C(=O)OC)[C@H](OC(C)=O)[C@]5(CC)C=CCN6CC[C@]43[C@@H]65)C2)C1 [vincristine, Vincristine sulfate] | 35% |  |  |
| N.N.[Cl][Pt][Cl] [cis-platinum, Cis-platinum] |  | 37% | 29% |
